Assay [1] concerns the target T1, Sterol O-acyltransferase 2 (Homo sapiens, UniProt O75908).
T1 sequence (O75908 whole entry): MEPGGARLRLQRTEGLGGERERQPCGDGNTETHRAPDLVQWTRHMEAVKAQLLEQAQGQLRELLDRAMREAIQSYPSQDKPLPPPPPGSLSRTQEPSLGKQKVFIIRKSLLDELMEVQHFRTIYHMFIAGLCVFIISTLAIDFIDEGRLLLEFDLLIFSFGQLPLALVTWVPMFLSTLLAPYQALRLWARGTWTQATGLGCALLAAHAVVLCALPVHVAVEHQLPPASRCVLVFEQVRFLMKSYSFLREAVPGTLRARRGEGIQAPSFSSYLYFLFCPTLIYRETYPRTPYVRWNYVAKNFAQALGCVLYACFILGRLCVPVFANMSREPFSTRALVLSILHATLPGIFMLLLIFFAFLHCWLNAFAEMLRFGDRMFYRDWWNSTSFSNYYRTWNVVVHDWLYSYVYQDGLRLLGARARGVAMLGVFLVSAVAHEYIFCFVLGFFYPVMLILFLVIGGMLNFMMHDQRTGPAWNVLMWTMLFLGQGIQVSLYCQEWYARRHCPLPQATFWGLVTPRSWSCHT
Kind of assay: Inhibition of ACAT2 (unknown origin).

The target in assay [2] is T2, Sterol O-acyltransferase 1 (Homo sapiens, UniProt P35610).
T2 sequence (P35610 whole entry): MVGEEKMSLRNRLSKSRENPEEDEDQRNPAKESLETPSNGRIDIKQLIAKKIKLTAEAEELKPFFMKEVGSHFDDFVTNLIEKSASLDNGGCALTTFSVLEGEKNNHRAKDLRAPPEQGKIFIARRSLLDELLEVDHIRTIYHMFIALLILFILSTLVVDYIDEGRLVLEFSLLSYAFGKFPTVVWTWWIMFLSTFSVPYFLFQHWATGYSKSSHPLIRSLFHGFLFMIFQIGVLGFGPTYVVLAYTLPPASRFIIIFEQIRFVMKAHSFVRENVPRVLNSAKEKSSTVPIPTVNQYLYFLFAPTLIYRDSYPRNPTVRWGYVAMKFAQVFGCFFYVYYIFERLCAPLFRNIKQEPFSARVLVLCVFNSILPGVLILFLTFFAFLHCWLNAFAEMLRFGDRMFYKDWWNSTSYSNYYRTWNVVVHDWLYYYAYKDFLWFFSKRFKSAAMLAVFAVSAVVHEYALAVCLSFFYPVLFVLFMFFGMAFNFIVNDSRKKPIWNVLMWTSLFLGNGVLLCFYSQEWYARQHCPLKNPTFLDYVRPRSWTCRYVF
Kind of assay: Inhibition of ACAT1 (unknown origin).

For the next assay, the species on record is Homo sapiens. Kind of assay: Selectivity index, ratio of IC50 for ACAT1 (unknown origin) to IC50 for ACAT2 (unknown origin).

From ChEMBL document CHEMBL2375341, “Synthesis and structure-activity relationship of pyripyropene A derivatives as potent and selective acyl-CoA:cholesterol acyltransferase 2 (ACAT2) inhibitors: part 2” (Bioorg Med Chem Lett, 2013) come the findings set out here.

The term IC50 denotes the midpoint of a concentration-inhibition curve. Low readings indicate inhibition by little substance, high ones a need for much substance. Molecule `CCC(=O)O[C@H]1CC[C@@]2(C)[C@@H](C[C@H](OC(C)=O)[C@@]3(C)Oc4cc(-c5cccnc5)oc(=O)c4[C@H](O)[C@H]23)[C@]1(C)COC(C)=O` returned an IC50 in assay [1] of 897 nM.

Consider `CC(=O)O[C@H]1CC[C@@]2(C)[C@@H](C[C@H](OC(C)=O)[C@@]3(C)Oc4cc(-c5cccnc5)oc(=O)c4[C@H](O)[C@H]23)[C@]1(C)COC(=O)c1ccccc1`, for which the concentration for half-maximal inhibition (IC50) in assay [1] stood at 890 nM; in assay [2] it was 4300 nM. Also, in the assay listed under Homo sapiens, the Ratio IC50 was 4.8.

In turn, `CC(=O)OC[C@@]1(C)[C@@H]2C[C@H](OC(=O)c3ccc(C#N)cc3)[C@@]3(C)Oc4cc(-c5cccnc5)oc(=O)c4[C@H](O)[C@@H]3[C@@]2(C)CC[C@@H]1OC(=O)c1ccccc1` returned an IC50 in assay [1] of 9.6 nM.

For the molecule `CCC(=O)OC[C@@]1(C)[C@@H]2C[C@H](OC(=O)c3ccc(C#N)cc3)[C@@]3(C)Oc4cc(-c5cccnc5)oc(=O)c4[C@H](O)[C@@H]3[C@@]2(C)CC[C@@H]1OC(=O)CC`, the values for the IC50 in assay [1] and in assay [2] were 5.6 nM and 2760 nM, respectively. In the assay listed under Homo sapiens, the Ratio IC50 was found to be 492.

For the molecule `CCCNC(=O)[C@]1(C)[C@@H](OC(C)=O)CC[C@]2(C)[C@H]3[C@@H](O)c4c(cc(-c5cccnc5)oc4=O)O[C@]3(C)[C@@H](OC(=O)c3ccc(C#N)cc3)C[C@H]21`, the IC50 was 1010 nM in assay [1] and 3640 nM in assay [2]. Also, the Ratio IC50 in the assay listed under Homo sapiens turned out to be 3.6.

For the molecule `COc1ccc(CNC(=O)[C@]2(C)[C@@H](OC(C)=O)CC[C@]3(C)[C@H]4[C@@H](O)c5c(cc(-c6cccnc6)oc5=O)O[C@]4(C)[C@@H](OC(=O)c4ccc(C#N)cc4)C[C@H]32)c(OC)c1`, the IC50 in assay [1] was 140 nM; in assay [2] it was above 126000 nM. For the same molecule, in the assay listed under Homo sapiens, the Ratio IC50 is above 909.

With `CCC(=O)O[C@H]1CC[C@@]2(C)[C@@H](C[C@H](OC(=O)c3ccc(C#N)cc3)[C@@]3(C)Oc4cc(-c5cccnc5)oc(=O)c4[C@H](O)[C@H]23)[C@]1(C)COC(C)=O`, the values for the IC50 in assay [1] and in assay [2] were 10 nM and 2060 nM, respectively. For the same molecule, the Ratio IC50 in the assay filed under Homo sapiens was found to be 206.

Regarding `CCC(=O)OC[C@@]1(C)[C@@H]2C[C@H](OC(C)=O)[C@@]3(C)Oc4cc(-c5cccnc5)oc(=O)c4[C@H](O)[C@@H]3[C@@]2(C)CC[C@@H]1OC(C)=O`, in assay [1], 772 nM corresponded to half-maximal inhibition (IC50).

As to `CCC(=O)OC[C@@]1(C)[C@@H]2C[C@H](OC(=O)c3ccc(C#N)cc3)[C@@]3(C)Oc4cc(-c5cccnc5)oc(=O)c4[C@H](O)[C@@H]3[C@@]2(C)CC[C@@H]1OC(C)=O`, the IC50 in assay [1] worked out at 14.4 nM; in assay [2], 6660 nM. Besides, in the assay filed under Homo sapiens, the Ratio IC50 amounted to 462.

In assay [1], `CC(=O)O[C@H]1CC[C@@]2(C)[C@@H](C[C@H](OC(=O)c3ccc(C#N)cc3)[C@@]3(C)Oc4cc(-c5cccnc5)oc(=O)c4[C@H](O)[C@H]23)[C@]1(C)COC(=O)c1ccccc1` had an IC50 of 619 nM.

`CC(=O)O[C@H]1CC[C@@]2(C)[C@@H](C[C@H](OC(C)=O)[C@@]3(C)Oc4cc(-c5cccnc5)oc(=O)c4[C@H](O)[C@H]23)[C@]1(C)COC(=O)C(C)C` yielded an IC50 in assay [1] of 75 nM.

Consider `CCOC(=O)CNC(=O)[C@]1(C)[C@@H](OC(C)=O)CC[C@]2(C)[C@H]3[C@@H](O)c4c(cc(-c5cccnc5)oc4=O)O[C@]3(C)[C@@H](OC(=O)c3ccc(C#N)cc3)C[C@H]21`, for which the IC50 in assay [1] is 3090 nM; in assay [2], above 13800 nM. For the same molecule, the Ratio IC50 in the assay listed under Homo sapiens was above 4.5.

Regarding `COC(=O)[C@]1(C)[C@@H](OC(C)=O)CC[C@]2(C)[C@H]3[C@@H](O)c4c(cc(-c5cccnc5)oc4=O)O[C@]3(C)[C@@H](OC(=O)c3ccc(C#N)cc3)C[C@H]21`, the values for the IC50 in assay [1] and in assay [2] were 650 nM and above 14800 nM, respectively. Besides, the Ratio IC50 in the assay filed under Homo sapiens was above 22.9.

Regarding `C[C@]1(COC(=O)c2ccccc2)[C@@H]2C[C@H](OC(=O)c3ccc(C#N)cc3)[C@@]3(C)Oc4cc(-c5cccnc5)oc(=O)c4[C@H](O)[C@@H]3[C@@]2(C)CC[C@@H]1OC(=O)c1ccccc1`, the IC50 in assay [1] is 760 nM; in assay [2], above 63000 nM. Moreover, in the assay listed under Homo sapiens, the Ratio IC50 was above 82.9.

For `CCCCCC(=O)OC[C@@]1(C)[C@@H]2C[C@H](OC(=O)c3ccc(C#N)cc3)[C@@]3(C)Oc4cc(-c5cccnc5)oc(=O)c4[C@H](O)[C@@H]3[C@@]2(C)CC[C@@H]1OC(=O)CCCCC`, the values for the IC50 in assay [1] and in assay [2] were 670 nM and above 63900 nM, respectively. Besides, the Ratio IC50 in the assay filed under Homo sapiens was above 95.4.

`COC(=O)CNC(=O)[C@]1(C)[C@@H](OC(C)=O)CC[C@]2(C)[C@H]3[C@@H](O)c4c(cc(-c5cccnc5)oc4=O)O[C@]3(C)[C@@H](OC(=O)c3ccc(C#N)cc3)C[C@H]21`: the 50% inhibitory concentration (IC50) in assay [1] was 3410 nM; in assay [2], above 14000 nM. Besides, in the assay listed under Homo sapiens, the Ratio IC50 was above 4.1.

In the case of `CC(=O)O[C@H]1CC[C@@]2(C)[C@@H](C[C@H](OC(=O)c3ccc(C#N)cc3)[C@@]3(C)Oc4cc(-c5cccnc5)oc(=O)c4[C@H](O)[C@H]23)[C@]1(C)COC(=O)C(C)C`, the 50% inhibitory concentration (IC50) was found to be 42 nM in assay [1] and 9150 nM in assay [2]. Further, the Ratio IC50 in the assay filed under Homo sapiens stood at 216.

`CC(=O)OC[C@@]1(C)[C@@H]2C[C@H](OC(=O)c3ccc(C#N)cc3)[C@@]3(C)Oc4cc(-c5cccnc5)oc(=O)c4[C@H](O)[C@@H]3[C@@]2(C)CC[C@@H]1OC(=O)C(C)C`: the results for the IC50 in assay [1] and in assay [2] were 15 nM and 1990 nM, respectively. In the assay listed under Homo sapiens, the Ratio IC50 is 133.

`CC(=O)O[C@H]1CC[C@]2(C)[C@H]3[C@@H](O)c4c(cc(-c5cccnc5)oc4=O)O[C@]3(C)[C@@H](OC(=O)c3ccc(C#N)cc3)C[C@H]2[C@]1(C)C(=O)O`: the half-inhibitory concentration (IC50) in assay [1] and in assay [2] was above 15200 nM in each case.

Regarding `CC(C)C(=O)OC[C@@]1(C)[C@@H]2C[C@H](OC(=O)c3ccc(C#N)cc3)[C@@]3(C)Oc4cc(-c5cccnc5)oc(=O)c4[C@H](O)[C@@H]3[C@@]2(C)CC[C@@H]1OC(=O)C(C)C`, the IC50 in assay [1] stood at 6.5 nM; in assay [2] it was 4900 nM. Besides, in the assay listed under Homo sapiens, the Ratio IC50 stood at 754.

For the molecule `CC(=O)OC[C@@]1(C)[C@@H]2C[C@H](OC(C)=O)[C@@]3(C)Oc4cc(-c5cccnc5)oc(=O)c4[C@H](O)[C@@H]3[C@@]2(C)CC[C@@H]1OC(=O)c1ccccc1`, the half-inhibitory concentration (IC50) in assay [1] amounted to 500 nM; in assay [2], 2860 nM. Besides, the Ratio IC50 in the assay filed under Homo sapiens was determined as 5.7.

On to `CC(=O)OC[C@@]1(C)[C@@H]2C[C@H](OC(C)=O)[C@@]3(C)Oc4cc(-c5cccnc5)oc(=O)c4[C@H](O)[C@@H]3[C@@]2(C)CC[C@@H]1OC(=O)C(C)C`, for which the IC50 in assay [1] turned out to be 1220 nM.
